{
  "source": "paper PMC10046369",
  "about": "“Low-Affinity/High-Selectivity Dopamine Transport Inhibition Sufficient to Rescue Cognitive Functions in the Aging Rat” (Biomolecules, 2023)",
  "assay_in_all_cases": "cell-based",
  "design_in_all_cases": "Eurofins Cerep functional GPCR antagonist assay, reference antagonists",
  "key": {"[1]": {"biological_target": "T1, 5-HT2B (h) (Homo sapiens, UniProt P41595)", "T1 construct": "gene HTR2B", "T1 sequence (P41595 whole entry)": "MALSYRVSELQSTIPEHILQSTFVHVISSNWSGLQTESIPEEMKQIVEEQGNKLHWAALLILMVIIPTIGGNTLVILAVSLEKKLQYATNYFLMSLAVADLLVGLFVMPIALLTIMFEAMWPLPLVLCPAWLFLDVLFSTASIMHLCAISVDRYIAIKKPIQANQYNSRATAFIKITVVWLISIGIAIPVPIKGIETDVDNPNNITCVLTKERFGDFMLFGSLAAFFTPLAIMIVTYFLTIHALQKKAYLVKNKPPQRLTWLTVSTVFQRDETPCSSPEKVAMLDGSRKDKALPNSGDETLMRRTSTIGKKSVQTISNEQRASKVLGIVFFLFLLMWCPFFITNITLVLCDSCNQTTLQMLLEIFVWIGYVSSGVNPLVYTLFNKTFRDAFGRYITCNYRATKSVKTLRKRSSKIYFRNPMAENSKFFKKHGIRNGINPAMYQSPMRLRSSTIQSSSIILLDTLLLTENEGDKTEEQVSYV"}, "[2]": {"biological_target": "T1, 5-HT2B (h)", "remark": "listed apart in the source"}, "[3]": {"biological_target": "T2, 5HT1B (h) (Homo sapiens, UniProt P28222)", "T2 construct": "gene HTR1B", "T2 sequence (P28222 whole entry)": "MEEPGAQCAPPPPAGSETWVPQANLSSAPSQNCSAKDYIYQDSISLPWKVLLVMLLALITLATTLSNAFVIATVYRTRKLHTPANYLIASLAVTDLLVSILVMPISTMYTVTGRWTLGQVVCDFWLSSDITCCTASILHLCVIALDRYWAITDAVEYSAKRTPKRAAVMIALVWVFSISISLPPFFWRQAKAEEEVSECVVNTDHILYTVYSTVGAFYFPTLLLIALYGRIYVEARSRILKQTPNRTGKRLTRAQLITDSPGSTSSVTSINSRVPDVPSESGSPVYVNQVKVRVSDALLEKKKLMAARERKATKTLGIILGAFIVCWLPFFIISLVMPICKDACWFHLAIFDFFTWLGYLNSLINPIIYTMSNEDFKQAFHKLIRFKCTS"}, "[4]": {"biological_target": "T2, 5HT1B (h)", "remark": "listed apart in the source"}, "[5]": {"biological_target": "T3, P2Y1 (h) (Homo sapiens, UniProt P47900)", "T3 construct": "gene P2RY1", "T3 sequence (P47900 whole entry)": "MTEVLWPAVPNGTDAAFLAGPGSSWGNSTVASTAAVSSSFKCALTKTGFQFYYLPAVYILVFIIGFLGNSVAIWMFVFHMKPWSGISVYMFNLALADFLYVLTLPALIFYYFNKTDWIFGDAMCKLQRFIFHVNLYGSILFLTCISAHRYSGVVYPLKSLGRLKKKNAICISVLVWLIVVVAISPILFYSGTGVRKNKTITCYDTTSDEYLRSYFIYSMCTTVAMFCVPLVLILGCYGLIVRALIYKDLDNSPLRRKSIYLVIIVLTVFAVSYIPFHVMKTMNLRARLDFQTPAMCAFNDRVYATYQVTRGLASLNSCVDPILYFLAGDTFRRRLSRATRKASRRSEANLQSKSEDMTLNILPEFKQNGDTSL"}, "[6]": {"biological_target": "T3, P2Y1 (h)", "remark": "listed apart in the source"}},
  "data": [
    {"smiles": "Cn1ccc2cc3c(cc21)CCN3C(=O)Nc1cccnc1", "note": "[SB 206553]", "values": [
      {"measurement": "Kb", "setting": "[1]", "value": 2.9, "unit": "nM"},
      {"measurement": "IC50", "setting": "[2]", "value": 19, "unit": "nM"}
    ]},
    {"smiles": "CN(C)CCCc1cc(C(=O)Nc2ccc(-c3ccncc3)cc2)ccc1O", "note": "[GR55562]", "values": [
      {"measurement": "IC50", "setting": "[3]", "value": 69, "unit": "nM"},
      {"measurement": "Kb", "setting": "[4]", "value": 11, "unit": "nM"}
    ]},
    {"smiles": "CNc1nc(I)nc2c1ncn2[C@H]1C[C@H](OP(=O)(O)O)[C@]2(COP(=O)(O)O)C[C@H]12", "note": "[MRS 2500]", "values": [
      {"measurement": "Kb", "setting": "[5]", "value": 0.43, "unit": "nM"},
      {"measurement": "IC50", "setting": "[6]", "value": 1.9, "unit": "nM"}
    ]}
  ]
}
